Assay results published in PubChem BioAssay (NCI).
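Where inhibition never reached the appropriate level, the endpoint shown equals the highest concentration tested. Otherwise, values were interpolated linearly from a five-concentration, 48-hour dose response in 96-well plates. GI50: concentration for 50% inhibition of growth. TGI denotes the concentration required for complete inhibition of growth.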

Experiments:
Assay in all cases: NCI tumour cell line growth inhibition, 48 h; in the data active means GI50 below about 0.43 µM; inactive means the rest
[1] = system: SNB-19 CNS
[2] = system: U251 CNS
[3] = system: NCI-H522 lung
[4] = system: RXF 393 renal
[5] = system: M14 melanoma
[6] = system: EKVX NSCLC
[7] = system: BT-549 breast
[8] = system: 786-0 renal
[9] = system: DU-145 prostate
[10] = system: HOP-92 NSCLC
[11] = system: HCC-2998 colon
[12] = system: SF-539 CNS
[13] = system: NCI/ADR-RES ovarian
[14] = system: MOLT-4 leukemia
[15] = system: PC-3 prostate
[16] = system: IGROV1 ovarian
[17] = system: CAKI-1 renal
[18] = system: NCI-H23 lung
[19] = system: OVCAR-4 ovarian
[20] = system: SF-295 CNS
[21] = system: OVCAR-5 ovarian
[22] = system: COLO 205 colon
[23] = system: HCT-116 colon
[24] = system: NCI-H460 lung
[25] = system: SK-OV-3 ovarian
[26] = system: LOX IMVI melanoma
[27] = system: HL-60(TB) leukemia
[28] = system: SW-620 colon
[29] = system: OVCAR-3 ovarian
[30] = system: HOP-62 NSCLC
[31] = system: CCRF-CEM leukemia
[32] = system: SNB-75 CNS
[33] = system: UACC-257 melanoma
[34] = system: HCT-15 colon
[35] = system: UACC-62 melanoma
[36] = system: MDA-N
[37] = system: SF-268 CNS
[38] = system: MDA-MB-435
[39] = system: OVCAR-8 ovarian
[40] = system: MCF7 breast
[41] = system: UO-31 renal
[42] = system: SK-MEL-5 melanoma
[43] = system: HS 578T breast
[44] = system: SN12C renal
[45] = system: KM12 colon
[46] = system: SK-MEL-28 melanoma
[47] = system: A549 NSCLC
[48] = system: ACHN renal
[49] = system: MDA-MB-231 breast
[50] = system: TK-10 renal
[51] = system: SK-MEL-2 melanoma
[52] = system: RPMI-8226 leukemia
[53] = system: K-562 leukemia
[54] = system: NCI-H226 lung
[55] = system: HT29 colon
[56] = system: SR leukemia
[57] = system: A498 renal
[58] = system: MALME-3M melanoma
[59] = system: T-47D breast

C=CCN(CC=C)Cn1c(=S)sc2ccccc21
30.7 µM: TGI [17]
41 µM: TGI [27]
37.7 µM: TGI [3]
47.5 µM: TGI [31]
> 100 µM: TGI [1] | TGI [2] | TGI [4] | TGI [5] | TGI [6] | TGI [7] | TGI [8] | TGI [9] | TGI [10] | TGI [11] | TGI [12] | TGI [13] | TGI [14] | TGI [15] | TGI [16] | TGI [18] | TGI [19] | TGI [20] | TGI [21] | TGI [22] | TGI [23] | TGI [24] | TGI [25] | TGI [28] | TGI [29] | TGI [30] | TGI [32] | TGI [33] | TGI [34] | TGI [35] | TGI [36] | TGI [37] | TGI [38] | TGI [39] | TGI [40] | TGI [41] | TGI [42] | TGI [43] | TGI [44] | TGI [45] | TGI [46] | TGI [47] | TGI [48] | TGI [49] | TGI [50] | TGI [51]
47.1 µM: TGI [26]

Clc1cc(N/N=C(/c2ccccc2)c2ncccn2)ncn1
34.6 µM: TGI [39]
79.3 µM: TGI [8]
46.6 µM: TGI [24]
58.3 µM: TGI [18]
28.5 µM: TGI [23]
5.51 µM: TGI [3]
50.8 µM: TGI [13]
73.4 µM: TGI [17]
77.6 µM: TGI [20]
82.1 µM: TGI [49]
66.7 µM: TGI [43]
93 µM: TGI [6]
68 µM: TGI [19]
41.4 µM: TGI [4]
85.1 µM: TGI [47]
55.8 µM: TGI [41]
36.3 µM: TGI [16]
64.4 µM: TGI [33]
74.4 µM: TGI [32]
35.7 µM: TGI [25]
76 µM: TGI [29]
51.8 µM: TGI [53]
46.4 µM: TGI [40]
22.9 µM: TGI [48]
59.3 µM: TGI [30]
22.8 µM: TGI [22]
36.6 µM: TGI [10]
54.7 µM: TGI [12]
73.9 µM: TGI [31]
> 100 µM: TGI [1] | TGI [2] | TGI [5] | TGI [7] | TGI [9] | TGI [11] | TGI [52] | TGI [14] | TGI [15] | TGI [21] | TGI [28] | TGI [34] | TGI [35] | TGI [36] | TGI [37] | TGI [38] | TGI [54] | TGI [42] | TGI [55] | TGI [44] | TGI [45] | TGI [46] | TGI [56]
82.6 µM: TGI [51]

Fc1cccc(COc2ccc(Nc3ncncc3C#Cc3ccccc3)cc2Cl)c1
inactive: GI50 [1] > 25 µM | GI50 [2] > 25 µM | GI50 [57] > 17.1 µM | GI50 [3] > 22.4 µM | GI50 [4] > 25 µM | GI50 [5] > 25 µM | GI50 [6] 8.26 µM | GI50 [7] > 25 µM | GI50 [8] > 25 µM | GI50 [9] > 25 µM | GI50 [10] > 18.8 µM | GI50 [11] > 25 µM | GI50 [58] > 25 µM | GI50 [52] > 25 µM | GI50 [12] > 25 µM | GI50 [13] > 25 µM | GI50 [14] > 25 µM | GI50 [15] > 25 µM | GI50 [16] > 24 µM | GI50 [59] 20 µM | GI50 [17] 12.5 µM | GI50 [18] > 25 µM | GI50 [19] > 25 µM | GI50 [20] > 25 µM | GI50 [21] > 25 µM | GI50 [22] > 25 µM | GI50 [23] 24.4 µM | GI50 [24] > 25 µM | GI50 [25] > 25 µM | GI50 [26] > 25 µM | GI50 [27] > 25 µM | GI50 [28] > 25 µM | GI50 [29] > 25 µM | GI50 [30] > 25 µM | GI50 [31] > 25 µM | GI50 [32] > 25 µM | GI50 [33] > 25 µM | GI50 [34] > 25 µM | GI50 [35] > 25 µM | GI50 [37] > 25 µM | GI50 [38] > 25 µM | GI50 [53] > 25 µM | GI50 [39] > 25 µM | GI50 [54] > 25 µM | GI50 [40] > 25 µM | GI50 [41] 21.6 µM | GI50 [42] > 25 µM | GI50 [43] > 25 µM | GI50 [55] > 25 µM | GI50 [44] > 25 µM | GI50 [45] > 25 µM | GI50 [46] > 25 µM | GI50 [47] > 25 µM | GI50 [48] > 25 µM | GI50 [49] > 25 µM | GI50 [50] 15 µM | GI50 [51] > 25 µM | GI50 [56] > 25 µM
> 25 µM: TGI [1] | TGI [2] | TGI [57] | TGI [3] | TGI [4] | TGI [5] | TGI [6] | TGI [7] | TGI [8] | TGI [9] | TGI [10] | TGI [11] | TGI [58] | TGI [52] | TGI [12] | TGI [13] | TGI [14] | TGI [15] | TGI [16] | TGI [59] | TGI [17] | TGI [18] | TGI [19] | TGI [20] | TGI [21] | TGI [22] | TGI [23] | TGI [24] | TGI [25] | TGI [26] | TGI [27] | TGI [28] | TGI [29] | TGI [30] | TGI [31] | TGI [32] | TGI [33] | TGI [34] | TGI [35] | TGI [37] | TGI [38] | TGI [53] | TGI [39] | TGI [54] | TGI [40] | TGI [41] | TGI [42] | TGI [43] | TGI [55] | TGI [44] | TGI [45] | TGI [46] | TGI [47] | TGI [48] | TGI [49] | TGI [50] | TGI [51] | TGI [56]
